# Assay results as given in patent US20260124278A1, “COMPOSITIONS AND METHODS FOR TREATMENT OF NEUROLOGICAL DISORDERS” (D&D Pharmatech Inc., priority 2022, published 2026).
# How the values were obtained:
# FaSSIF/pancreatin = experiment: in vitro stability against FaSSIF/pancreatin; type: in vitro ADME; conditions: 0 min
# trypsin = experiment: in vitro stability against trypsin; type: in vitro ADME; conditions: 0 min
# [1] = in vivo; cited from earlier work
# primary microglia = experiment: α-syn PFF induced microglial activation, cytokine mRNA by qPCR; type: cell-based, mouse; conditions: agonist 2 μM, 150 nM PFF for 4 h
# Protocol: Mouse microglia isolated from postnatal day 2 CD1 mouse brain were obtained from ScienCell Research Laboratories (M1900, Carlsbad, CA). […] Pre-condition: 24 hrs non-serum condition.
# Total RNA from cultured cells was extracted with a RNA isolation kit (Qiagen, Valencia, CA, USA) following the instructions provided by the company. RNA concentration was measured spectrophotometrically using a NanoDrop 2000 (Biotek, Winooski, VT, USA). Subsequently, 1-2 μg of total RNA was reverse transcribed to cDNA using the High-Capacity cDNA Reverse Transcription System (Life Technologies, Grand Island, NY, USA). Comparative qPCR was performed in duplicate or triplicate for each sample using fast SYBR Green Master Mix (Life Technologies) and ViiA 7 Real-Time PCR System (Applied Biosystems, Foster City, CA, USA). The expression levels of target genes were normalized to the expression of Actb and calculated based on the comparative cycle threshold Ct method (2^−ΔΔCt).
compound,measurement,setting,value
CC[C@H](C)[C@H](NC(=O)[C@H](Cc1ccccc1)NC(=O)[C@H](CCC(=O)O)NC(=O)[C@H](CCCCNC(=O)COCCOCCNC(=O)COCCOCCNC(=O)CC[C@H](NC(=O)CCCCCCCCCCCCCCCCC(=O)O)C(=O)O)NC(=O)[C@H](C)NC(=O)[C@H](C)NC(=O)[C@H](CCC(N)=O)NC(=O)CNC(=O)[C@H](CCC(=O)O)NC(=O)[C@H](CC(C)C)NC(=O)[C@H](Cc1ccc(O)cc1)NC(=O)[C@H](CO)NC(=O)[C@H](CO)NC(=O)[C@@H](NC(=O)[C@H](CC(=O)O)NC(=O)[C@H](CO)NC(=O)[C@@H](NC(=O)[C@H](Cc1ccccc1)NC(=O)[C@@H](NC(=O)CNC(=O)[C@H](CCC(=O)O)NC(=O)C(C)(C)NC(=O)[C@@H](N)Cc1cnc[nH]1)[C@@H](C)O)[C@@H](C)O)C(C)C)C(=O)N[C@@H](C)C(=O)N[C@@H](Cc1c[nH]c2ccccc12)C(=O)N[C@@H](CC(C)C)C(=O)N[C@H](C(=O)N[C@@H](CCCNC(=N)N)C(=O)NCC(=O)N[C@@H](CCCNC(=N)N)C(=O)NCC(=O)O)C(C)C [Semaglutide],Remaining amount (%) after FaSSIF/Pancreatin treatment,FaSSIF/pancreatin,100.0%
same,Remaining amount (%) after trypsin treatment,trypsin,100.0%
NLY01: long-acting PEGylated form of exenatide,half-life,[1],88 h
same,"α-syn PFF induced mRNA expression of TNF-α, IL-1α, IL-1β, C1q and IL-6",primary microglia,significantly reduces
